Laboratory results published in ChEMBL document CHEMBL4152274, “Design, synthesis and X-ray crystallography of selenides bearing benzenesulfonamide moiety with neuropathic pain modulating effects” (Eur J Med Chem, 2018).
Active and inactive are the calls of the source. No cut-off for these calls is given here.

biological target: Carbonic anhydrase 9 (Homo sapiens, UniProt Q16790); experiment: Inhibition of human carbonic anhydrase 9 incubated for 15 mins prior to testing by stopped-flow CO2 hydration assay

SMILES | Ki
NS(=O)(=O)c1ccc(C[Se]c2ccc(NC(=S)Nc3ccc(-c4c5ccc(=O)cc-5oc5cc(O)ccc45)c(C(=O)O)c3)cc2)cc1 | 697 nM
Cc1cc(C)cc(NC(=O)Nc2ccc([Se]Cc3ccc(S(N)(=O)=O)cc3)cc2)c1 | 1140 nM
NS(=O)(=O)c1ccc(C[Se]c2ccc3ccccc3c2)cc1 | 337 nM
NS(=O)(=O)c1ccc(C[Se]c2ccc(NC(=O)Nc3ccc(F)cc3)cc2)cc1 | 1070 nM
N#C[Se]Cc1ccc(S(N)(=O)=O)cc1 | 4 nM
Nc1ccc([Se]Cc2ccc(S(N)(=O)=O)cc2)cc1 | 286 nM
CC(=O)Oc1ccccc1C(=O)Nc1ccc([Se]Cc2ccc(S(N)(=O)=O)cc2)cc1 | 710 nM
COc1ccc(C(=O)Nc2ccc([Se]Cc3ccc(S(N)(=O)=O)cc3)cc2)c(OC)c1 | 845 nM
CN(C)c1ccc([Se]Cc2ccc(S(N)(=O)=O)cc2)cc1 | 450 nM
NS(=O)(=O)c1ccc(C[Se]c2ccc(NC(=O)/C=C/c3ccccc3)cc2)cc1 | 1010 nM
NS(=O)(=O)c1ccc([Se]CC2CC2)cc1 | 46.4 nM
NS(=O)(=O)c1ccc([Se]Cc2ccccc2)cc1 | 549 nM

tested on: Mus musculus; experiment: Pain relieving effect in mouse oxaliplatin-induced neuropathic pain model at 100 mg/kg, po measured over 15 to 45 mins by cold plate test; format: functional, organism-based

SMILES | Activity
NS(=O)(=O)c1ccc([Se]CCc2ccccc2)cc1 | Active
COCC[Se]c1ccc(S(N)(=O)=O)cc1 | Active

tested on: Mus musculus; experiment: Pain relieving effect in mouse oxaliplatin-induced neuropathic pain model at 30 mg/kg, po measured at 30 mins by cold plate test; format: functional, organism-based

SMILES | Activity
NS(=O)(=O)c1ccc(C[Se]c2ccccc2)cc1 | Active
